Like-named read-outs stand apart in the source and are kept apart here.
Tests used:
sigma 2 (h) = molecular target: T1, sigma 2 (h) (Homo sapiens, UniProt Q5BJF2); assay: sigma 2 (h) agonist radioligand binding assay ([3H]DTG); conditions: Sigma 2 Receptor, 1.00E−06 M
T1 construct: endogenous; endogenous in cells; host or cells: Jurkat cells
Protocol: (§1) 12 compounds in binding assays (either sigma 1 or sigma 2 receptors) at 1.0×10^−6 M. Compound binding was calculated as a % inhibition of the binding of a ligand specific for each target.
(§2) The results are expressed as a percent of control specific binding: [(measured specific binding)/(control specific binding)]*100 and as a percent inhibition of control specific binding: 100−{[(measured specific binding)/(control specific binding)]*100}, obtained in the presence of the test compounds.
(§3) The IC50 values (concentration causing a half-maximal inhibition of control specific binding) and Hill coefficients (nH) were determined by non-linear regression analysis of the competition curves generated with mean replicate values using Hill equation curve fitting: Y={D+[(A−D)/(1+(C/C50)^nH)]} (where Y=specific binding, A=left asymptote of the curve, D=right asymptote of the curve, C=compound concentration, C50=IC50, and nH=slope factor). This analysis was performed using software developed at Cerep (Hill software) and validated by comparison with data generated by the commercial software SigmaPlot® 4.0 for Windows® (© 1997 by SPSS Inc.). The inhibition constants (Ki) were calculated using the Cheng Prusoff equation: Ki=(IC50)/(1+L/KD) (where L=concentration of ligand in the assay, and KD=affinity of the ligand for the receptor).

sigma 1 (h) = molecular target: T2, sigma 1 (h) (Homo sapiens, UniProt Q99720); assay: sigma 1 (h) agonist radioligand binding assay ([3H](+)pentazocine); conditions: Sigma 1 Receptor, 1.00E−06 M
T2 construct: endogenous; endogenous in cells; host or cells: Jurkat cells
T2 sequence (Q99720 whole entry): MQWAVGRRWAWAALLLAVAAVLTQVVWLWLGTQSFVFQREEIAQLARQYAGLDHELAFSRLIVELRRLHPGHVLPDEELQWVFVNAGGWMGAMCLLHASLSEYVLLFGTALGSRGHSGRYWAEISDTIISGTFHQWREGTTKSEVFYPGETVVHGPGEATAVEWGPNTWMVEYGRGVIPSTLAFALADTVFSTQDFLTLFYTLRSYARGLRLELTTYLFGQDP
Protocol: as §1, §2, §3

dopamine transporter (h) = molecular target: T3, dopamine transporter (h) (Homo sapiens, UniProt Q01959); assay: dopamine transporter (h) antagonist radioligand binding assay ([3H]BTCP); conditions: 1.00E−06 M
T3 construct: expressed in transfected cells; host or cells: CHO cells
T3 sequence (Q01959 whole entry): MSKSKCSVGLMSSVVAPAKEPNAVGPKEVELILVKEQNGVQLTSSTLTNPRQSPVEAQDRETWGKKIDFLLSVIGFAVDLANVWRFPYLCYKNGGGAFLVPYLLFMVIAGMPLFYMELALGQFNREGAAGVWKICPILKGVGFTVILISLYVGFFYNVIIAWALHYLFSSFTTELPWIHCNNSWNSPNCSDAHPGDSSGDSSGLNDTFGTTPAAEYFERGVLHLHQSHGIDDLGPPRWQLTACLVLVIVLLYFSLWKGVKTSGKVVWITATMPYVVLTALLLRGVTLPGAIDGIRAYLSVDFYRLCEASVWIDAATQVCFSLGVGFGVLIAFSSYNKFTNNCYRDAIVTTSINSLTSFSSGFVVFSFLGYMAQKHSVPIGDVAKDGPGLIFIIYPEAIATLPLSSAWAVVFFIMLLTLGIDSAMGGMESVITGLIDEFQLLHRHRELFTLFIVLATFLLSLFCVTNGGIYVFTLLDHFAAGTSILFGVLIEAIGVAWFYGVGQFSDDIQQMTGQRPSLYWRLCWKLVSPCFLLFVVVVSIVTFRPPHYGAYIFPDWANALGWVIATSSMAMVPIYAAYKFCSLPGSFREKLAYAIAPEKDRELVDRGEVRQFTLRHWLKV
Protocol: [The source words this procedure for another target and reports this target under the same test.] as §1, §2, §3

[1] = 1st, read-out: % Inhibition of Control Specific Binding, 1st
[2] = 2nd, read-out: % Inhibition of Control Specific Binding, 2nd
[3] = read-out: % Inhibition of Control Specific Binding, 3rd

T1 sequence (Q5BJF2 whole entry): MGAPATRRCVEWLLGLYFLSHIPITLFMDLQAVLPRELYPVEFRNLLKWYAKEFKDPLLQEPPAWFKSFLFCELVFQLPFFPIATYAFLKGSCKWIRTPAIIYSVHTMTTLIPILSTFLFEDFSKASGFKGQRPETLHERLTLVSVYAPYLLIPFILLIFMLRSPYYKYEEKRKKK

inhibition at 1 µM (sigma 2 (h); [1]) | inhibition at 1 µM (sigma 2 (h); [2]) | inhibition at 1 µM (sigma 2 (h); [3]) | inhibition at 1 µM (sigma 1 (h); [1]) | inhibition at 1 µM (sigma 1 (h); [2]) | inhibition at 1 µM (sigma 1 (h); [3]) | inhibition at 1 µM (dopamine transporter (h); [1]) | inhibition at 1 µM (dopamine transporter (h); [2]) | inhibition at 1 µM (dopamine transporter (h); [3]) | Compound
104% | 98.7% | 101% | 96.7% | 97.6% | 97.1% | 24.6% | 24.4% | 24.5% | O=C1CCCc2ccccc2N1CCCCN1CCN(c2cccc(Cl)c2)CC1 [SMB107, 1-(4-(4-(3-Chlorophenyl)piperazin-1-yl)butyl)-1,3,4,5-tetrahydro-2H-benzo[b]azepin-2-one]
95% | 99.8% | 97.4% | 93.8% | 95.4% | 94.6% | 28.3% | 25.9% | 27.1% | O=C1COCc2ccccc2N1CCCCN1CCN(c2cccc(Cl)c2)CC1 [SMB108, 1-(4-(4-(3-Chlorophenyl)piperazin-1-yl)butyl)-1,5-dihydrobenzo[e][1,4]oxazepin-2(3H)-one]
93.2% | 100% | 96.7% | 95.7% | 93.8% | 94.7% | -5.6% | -2.8% | -4.2% | O=C1CCCc2ccccc2N1CCCCN1CCN(c2ccccc2Cl)CC1 [STG158]
82.9% | 85.9% | 84.4% | 98.8% | 99.2% | 99% | 26.5% | 23.2% | 24.8% | O=C1CCCc2ccccc2N1CCCCN1CCN(c2ccc(Cl)cc2)CC1 [STG188]
82.2% | 78.2% | 80.2% | 92.8% | 93.6% | 93.2% | 8.6% | 5.1% | 6.8% | O=C1COCc2ccccc2N1CCCCN1CCN(c2ccc(Cl)cc2)CC1 [STG189]
96.4% | 95.5% | 95.9% | 101% | 101% | 101% | 9.2% | 14.8% | 12% | O=C1CSCc2ccccc2N1CCCCN1CCN(c2ccc(Cl)cc2)CC1 [STG190]
86.2% | 102% | 94.4% | 98.6% | 98.5% | 98.6% | 21.8% | 27.6% | 24.7% | O=C1CSCc2ccccc2N1CCCCN1CCN(c2cccc(Cl)c2)CC1 [STG191]
56.6% | 43.4% | 50% | 53.5% | 53.2% | 53.3% | 12.6% | 4.3% | 8.5% | O=C1CSCc2ccccc2N1CCCCN1CCN(c2ccccc2Cl)CC1 [STG192]

Compound | inhibition at 1 µM (sigma 2 (h); [1]) | inhibition at 1 µM (sigma 2 (h); [2]) | inhibition at 1 µM (sigma 2 (h); [3]) | inhibition at 1 µM (sigma 1 (h); [1]) | inhibition at 1 µM (sigma 1 (h); [2]) | inhibition at 1 µM (sigma 1 (h); [3]) | inhibition at 1 µM (dopamine transporter (h); [1]) | inhibition at 1 µM (dopamine transporter (h); [2]) | inhibition at 1 µM (dopamine transporter (h); [3])
Cn1c(=O)n(CCCCN2CCC3(CC2)OCc2ccccc23)c2ccccc21 [CM699, reference compound] | 88% | 95.9% | 92% | 95.6% | 94% | 94.8% | 18.6% | 23.2% | 20.9%
O=C1COCc2ccccc2N1CCCCN1CCC2(CC1)OCc1ccccc12 [STG135, 1-(4-(3H-spiro[isobenzofuran-1,4′-piperidin]-1′-yl)butyl)-1,5-dihydrobenzo[e][1,4]oxazepin-2(3H)-one] | 106% | 84.4% | 95.2% | 97.9% | 94.5% | 96.2% | 6% | 3.5% | 4.8%
O=C1CCCc2ccccc2N1CCCCN1CCC2(CC1)OCc1ccccc12 [STG136, 1-(4-(3H-spiro[isobenzofuran-1,4′-piperidin]-1′-yl)butyl)-1,3,4,5-tetrahydro-2H-benzo[b]azepin-2-one] | 90.3% | 100% | 95.3% | 98.8% | 98.4% | 98.6% | 7.9% | 11.4% | 9.7%
O=C1CSCc2ccccc2N1CCCCN1CCC2(CC1)OCc1ccccc12 [STG187] | 96.5% | 108% | 102% | 93.6% | 98.9% | 96.3% | 12.9% | 13.1% | 13%

— US20250214979A1, “COMPOUNDS FOR TREATING PSYCHOSTIMULANT MISUSE” (University of Florida Research Foundation, Incorporated, priority 2022, published 2025)
